In assay [1] the test system is N2a. Put plainly: Neuroprotective activity against tunicamycin-induced ER stress in mouse Neuro2a cells assessed as cell viability at 10 to 100 ug/ml pre-incubated for 2 hrs followed by tunicamycin addition for 22 hrs by MTT assay. The format is functional, cell-based. To be noted: dose 10-100 µg/ml, time 24.0 hrs. On the technique in general: Tetrazolium dyes change colour on reduction, which living cells bring about.

Assay [2] deals with N2a. Kind of assay: Neuroprotective activity against thapsigargin-induced ER stress in mouse Neuro2a cells assessed as cell viability at 10 to 100 ug/ml pre-incubated for 2 hrs followed by thapsigargin addition for 22 hrs by MTT assay. To be noted: dose 10-100 µg/ml, time 24.0 hrs. It counts as functional, cell-based.

Take `CCCCCCCCCCCCCCCC(=O)OCc1cc(OC)c(C[C@H]2O[C@]2(C)CC(=O)C=C(C)C)c(O)c1C=O` (racemic): the Activity result in the assay with N2a [1] and in the assay on N2a [2] was “Not active; No Protective Activity” throughout.
Regarding `CCCCCCCCCCCCCCCC(=O)OCc1cc(OC)c2c(c1C=O)OC(/C(C)=C/C(=O)C=C(C)C)C2` (racemic), the Activity entry in the assay on N2a [1] and with N2a [2] was “Active; Significant Protective Activity” throughout.
For the compound `CCCCCCCCCCCCCCCC(=O)OCc1cc(OC)c2c(c1C=O)OC(/C(C)=C\C(=O)C=C(C)C)C2` (racemic), the Activity entry in the assay with N2a [1] and with N2a [2] was “Active; Significant Protective Activity” in each case.

(Values after ChEMBL document CHEMBL6153038, “Uncovering Hericenones from the Fruiting Bodies of Hericium erinaceus through Interdisciplinary Collaboration” (J Nat Prod, 2025).)
